Measurements published in ChEMBL document CHEMBL3817834, “Scaffold morphing leading to evolution of 2,4-diaminoquinolines and aminopyrazolopyrimidines as inhibitors of the ATP synthesis pathway” (Medchemcomm, 2016).

Columns and labels:
[1] = system: Mycobacterium tuberculosis; assay: Induction of membrane damage in Mycobacterium bovis BCG incubated for 60 mins under dark condition using DiOC2 probe by fluorescence assay; assay type: organism-based; settings: variant bovis BCG, 1 h
[2] = system: Mycobacterium tuberculosis; assay: Antimycobacterial activity against Mycobacterium bovis BCG assessed as depletion of intracellular ATP level at 5 times antimycobacterial MIC after 20 hrs by luciferin/luciferase coupled reporter gene assay relative to control; assay type: functional, variant bovis BCG

SMILES	IC50 [1] [µM]	Activity [2] [%]
CN(C)CCOc1ncc(Nc2cc(-c3ccccc3)nc3cc(-c4ccc(F)cc4)nn23)cc1F	> 100	25
COc1cc2nc(NCCC3CCOCC3)nc(Nc3cc(C(C)(C)C)n(C)n3)c2cc1OC	> 100	
CN(C)CCOc1ncc(Nc2cc(C(F)(F)F)nc3cc(-c4ccc(F)cc4)nn23)cc1F	> 100	
CN(C)CCOc1ncc(Nc2cc(-c3ccccc3)nc3cc(-c4ccc(F)cc4)[nH]c23)cc1F	> 100	23
CCOc1ncc(Nc2nc(NCCC3CCOCC3)nc3cc(OC)c(OC)cc23)cc1F		31
COc1cc2nc(N3CCC(c4ccccc4Cl)C3)cc(Nc3cnc(OCCN(C)C)c(F)c3)c2cc1OC (stereo not drawn)	> 100	68
CN(C)CCOc1ncc(Nc2cc(N3CCC(c4ccccc4Cl)C3)nc3cc(F)c(F)cc23)cc1F (stereo not drawn)	> 100	25
COc1cc2nc(N3CCC(c4ccccc4Cl)C3)cc(Nc3cnc(NCCN(C)C)c(F)c3)c2cc1OC (stereo not drawn)		22
CCOc1ncc(Nc2cc(NCCC3CCOCC3)nc3cc(OC)c(OC)cc23)cc1F	> 100	5
COc1nc2ccc(Br)cc2cc1[C@@H](c1ccccc1)[C@@](O)(CCN(C)C)c1cccc2ccccc12 [BEDAQUILINE]	> 100	76
N#CC(C#N)=NNc1cccc(Cl)c1 [CARBONYL CYANIDE M-CHLOROPHENYLHYDRAZONE]	3	
NNC(=O)c1ccncc1 [ISONIAZID]		-6
